Test results as given in patent US5075298A, “Cephalosporins” (Roussel Uclaf, priority 1987, dated 1991).
Counter-ions that a name gives are not always drawn.

Assays:
Assay in all cases: In vitro activity, dilution method in a liquid medium (MIC)
Type in all cases: cell-based
[1] = test system: Pseudomonas aeruginosa 1771 m; details: 24 H
Procedure: (§1) In vitro activity, dilution method in a liquid medium.
(§2) A series of tubes were prepared in which an equal quantity of sterile nutritive medium was distributed. Increasing quantities of the product under test were distributed into each tube and then each tube was seeded with a bacterial strain. After incubation for 24 or 48 hours in an incubator at 37° C., the inhibition of the growth was estimated by transillumination, which enabled the minimal inhibiting concentrations (M.I.C.), expressed in micrograms/ml to be determined.

[2] = test system: Streptococcus pyogenes 77 A; details: 24 H
Procedure: as §1, §2

[3] = test system: Staphylococcus aureus Exp. n° 54 146; details: 24 H
Procedure: as §1, §2

Escherichia Coli DC 2 = details: COLIDC2, 24 H
Procedure: as §1, §2

[4] = test system: Kiebsiella aerogenes 1 522 E; details: 24 H
Procedure: as §1, §2

[5] = test system: Streptococcus pyogenes A 561; details: A561, 24 H
Procedure: as §1, §2

Escherichia Coli T E M = details: 24 H
Procedure: as §1, §2

Escherichia Coli 1507 E = details: COLI1507E, 24 H
Procedure: as §1, §2

[6] = test system: Enterobacter cloacae 1 321 E; details: 1321E, 24 H
Procedure: as §1, §2

[7] = test system: Proteus vulgaris (indol) A 232; details: 24 H
Procedure: as §1, §2

[8] = test system: Staphylococcus aureus 285; details: 24 H
Procedure: as §1, §2

Escherichia Coli O 75 = details: COLIO75, 24 H
Procedure: as §1, §2

[9] = test system: Proteus mirabilis (indol-) A 235; details: 24 H
Procedure: as §1, §2

Escherichia Coli UC 1894 = details: UC1894, 24 H
Procedure: as §1, §2

Serratia RG 2 532 = details: RG2532, 24 H
Procedure: as §1, §2

Escherichia Coli DC 0 = details: COLIDC0, 24 H
Procedure: as §1, §2

[10] = test system: Saimonella typhimurium MZ 11; details: 24 H
Procedure: as §1, §2

[11] = test system: Kiebsiella pneumoniae Exp. 52 145; details: 24 H
Procedure: as §1, §2

Providencia Du 48 = details: DU48, 24 H
Procedure: as §1, §2

| SMILES | MIC [1] [µg/mL] | MIC [2] [µg/mL] | MIC [3] [µg/mL] | MIC (Escherichia Coli DC 2) [µg/mL] | MIC [4] [µg/mL] | MIC [5] [µg/mL] | MIC (Escherichia Coli T E M) [µg/mL] | MIC (Escherichia Coli 1507 E) [µg/mL] | MIC [6] [µg/mL] | MIC [7] [µg/mL] | MIC [8] [µg/mL] | MIC (Escherichia Coli O 75) [µg/mL] | MIC [9] [µg/mL] | MIC (Escherichia Coli UC 1894) [µg/mL] | MIC (Serratia RG 2 532) [µg/mL] | MIC (Escherichia Coli DC 0) [µg/mL] | MIC [10] [µg/mL] | MIC [11] [µg/mL] | MIC (Providencia Du 48) [µg/mL] |
| --- | --- | --- | --- | --- | --- | --- | --- | --- | --- | --- | --- | --- | --- | --- | --- | --- | --- | --- | --- |
| Nc1nc(/C(=N/OC(F)F)C(=O)N[C@@H]2C(=O)N3C(C(=O)[O-])=C(/C=C/C[n+]4cccc5ccsc54)CS[C@H]23)cs1 [ex. 2, (6R,7R)-7-[[(2-amino-4-thiazolyl) [(Z)]-[(difluoromethoxy)imino]]acetamido]-8-oxo-3 [(E) 3-[7-[thieno[2,3-b]pyridino]-1-propenyl]-5-thia-1-azabicyclo[4,2,0]oct-2-en-2-carboxylate (internal salt)] | 1.2 | ≤ 0.01 | 5 | 0.6 | 0.6 | ≤ 0.01 | 0.6 | 0.15 | 0.3 | 0.3 | 5 | 1.2 | 0.08 | 0.04 | 10 | 2.5 | 0.3 | 0.6 | 2.5 |
| CO/N=C(\C(=O)N[C@@H]1C(=O)N2C(C(=O)[O-])=C(/C=C/C[n+]3cccc4ccsc43)CS[C@H]12)c1csc(N)n1 [ex. 3, (6R,7R)-7-[[(2-amino-4-thiazolyl)-[(Z)[methoxyimino]]-acetamido]-8-oxo-3-[(E)-3-[7-[thieno[2,3-b]pyridinio]-1-propenyl]-5-thia-1-azabicyclo[4,2,0]oct-2-en-2-carboxylate (internal salt)] | 2.5 | ≤ 0.01 | 2.5 | 0.08 | 0.6 | ≤ 0.01 | 0.6 | 0.04 | 0.6 | 0.2 | 2.5 | 0.3 | 0.04 | 0.08 | 5 | 1.2 | 0.3 | 1.2 | 1.2 |
| CO/N=C(\C(=O)N[C@@H]1C(=O)N2C(C(=O)O)=C(/C=C/C[n+]3cccc4ccsc43)CS[C@H]12)c1csc(N)n1 [ex. 1] | 0.6 | ≤ 0.01 | 0.3 | 0.01 | 0.15 | ≤ 0.01 | 0.04 | 0.01 | 0.04 | 0.3 | 0.15 | 0.02 | 0.04 | ≤ 0.01 | 0.15 | 0.04 | 0.04 | 0.08 | 0.3 |
